Tests used:
[1] = biological target: P70S6K (T412E mutant) (Homo sapiens (Human), UniProt P23443, T412E); experiment: P70S6K enzyme assay; format: biochemical; settings: 24 μM ATP
Method: P70S6K inhibitor compounds were diluted and plated in 96 well plates. A reaction mixture including the following components was then added to the compound plate to initiate the enzyme reaction; P70S6K (3 nM, T412E mutant, Millipore) was mixed with 24 μM ATP in an assay buffer containing 100 mM Hepes (pH 7.5), 5 mM MgCl2, 1 mM DTT, 0.015% Brij and 1 μM of the substrate peptide FITC-AHA-AKRRRLSSLRA-OH (derived from the S6 ribosomal protein sequence, FITC=fluorescein isothiocyanate, AHA=6-aminohexanoic acid). The reaction was incubated for 90 min at 25° C., before the addition of 10 mM EDTA to stop the reaction. The proportion of substrate and product (phosphorylated) peptide was analysed on a Caliper Life Sciences Lab Chip 3000, using a pressure of −1.4 psi, and upstream and downstream voltages of −3000 and −700 respectively. Product peaks were resolved before substrate peaks on the resulting chromatograms.

[2] = biological target: His-AKT (Full Length) (Homo sapiens (Human), UniProt P31749); experiment: AKT enzyme assay; format: biochemical; settings: 160 uM ATP
His-AKT (Full Length), sequence (P31749 whole entry): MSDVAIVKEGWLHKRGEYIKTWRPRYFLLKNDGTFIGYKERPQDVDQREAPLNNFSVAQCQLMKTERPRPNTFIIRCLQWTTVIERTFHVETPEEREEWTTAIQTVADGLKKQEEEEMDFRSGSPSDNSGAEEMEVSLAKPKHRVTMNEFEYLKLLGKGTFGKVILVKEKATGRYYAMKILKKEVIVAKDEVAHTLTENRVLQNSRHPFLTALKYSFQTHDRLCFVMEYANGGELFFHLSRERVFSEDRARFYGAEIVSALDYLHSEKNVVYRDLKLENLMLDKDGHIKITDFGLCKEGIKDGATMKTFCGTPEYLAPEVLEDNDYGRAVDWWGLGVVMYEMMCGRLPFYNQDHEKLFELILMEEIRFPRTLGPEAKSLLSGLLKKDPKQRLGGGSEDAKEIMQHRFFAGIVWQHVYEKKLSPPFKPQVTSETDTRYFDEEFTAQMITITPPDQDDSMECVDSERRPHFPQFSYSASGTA
Method: A TTP Mosquito liquid handling instrument was used to place 125 nl of the appropriate concentration of inhibitor in 100% DMSO (for a dose response curve calculation) into each well of a 384-well plate. To this reaction components were added to a final volume of 12.5 μl: • 0.1 ng/μl His-AKT (Full Length), (Invitrogen, Part # P2999, Lot #641228C). • 160 uM ATP (Fluka, 02055) • 1 mM DTT (Sigma, D0632) • 1 mM MgCl2 (Sigma, M1028) • 1 μM substrate peptide (sequence FITC-AHA-GRPRTSSFAEG-NH2), synthesized by Tufts Peptide Synthesis service. • 100 mM HEPES pH 7.5 (Calbiochem, 391338) • 0.015% Brij-35 (Sigma, B4184)
The reaction was incubated for 90 min at 25 C., and then stopped by the addition of 70 μl of Stop buffer (100 mM HEPES pH 7.5, 0.015% Brij-35, 10 mM EDTA (Sigma, E7889)).
The plate was read on a Caliper LC 3000 in an Off-Chip mobility shift assay format, using the following parameters for a 12-sipper chip: screening pressure −2.3 psi, upstream voltage −500, and downstream voltage −3000. These conditions caused unphosphorylated substrate and phosphorylated product peptide to resolve as separate peaks allowing direct measurement of percentage of conversion of substrate to product.
The percent conversion was plotted against concentration of inhibitor to produce a sigmoidal dose response curve, from which an IC50 was calculated.

P70S6K (T412E mutant), sequence (P23443 whole entry T412E): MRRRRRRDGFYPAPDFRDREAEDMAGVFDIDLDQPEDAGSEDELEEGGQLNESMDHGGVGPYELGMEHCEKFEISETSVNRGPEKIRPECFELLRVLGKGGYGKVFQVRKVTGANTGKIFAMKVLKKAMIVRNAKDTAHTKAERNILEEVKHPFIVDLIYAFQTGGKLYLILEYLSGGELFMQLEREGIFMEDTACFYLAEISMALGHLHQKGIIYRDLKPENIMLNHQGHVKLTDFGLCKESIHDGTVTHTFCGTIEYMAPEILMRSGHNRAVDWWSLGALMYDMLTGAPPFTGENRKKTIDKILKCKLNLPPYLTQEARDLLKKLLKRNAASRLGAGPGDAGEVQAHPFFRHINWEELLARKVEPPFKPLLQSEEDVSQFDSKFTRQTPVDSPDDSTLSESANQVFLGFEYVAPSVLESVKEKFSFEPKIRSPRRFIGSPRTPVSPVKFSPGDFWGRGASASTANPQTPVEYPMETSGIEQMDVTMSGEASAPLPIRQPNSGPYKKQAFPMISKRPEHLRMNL

Structure (SMILES)	IC50 [1] [nM]	IC50 [2] [nM]
C[C@H]1CN(c2ncnc(N)c2C(N)=O)CC[C@H]1c1nc(-c2ccc(F)c(C(F)(F)F)c2)cn1CCN1CCC1 (racemic) [Compound 6, 4-Amino-6-{3,4-cis-4-[1-(2-azetidin-1-yl-ethyl)-4-(4-fluoro-3-trifluoromethyl-phenyl)-1H-imidazol-2-yl]-3-methyl-piperidin-1-yl}-pyrimidine-5-carboxamide]	> 10	> 10
Cc1cc(-c2cn(CCN(C)C)c([C@H]3CCN(c4ncnc(N)c4Cl)C[C@H]3F)n2)ccc1F (racemic) [Compound 12, 5-chloro-6-{3,4-cis-4-[1-(2-dimethylamino-ethyl)-4-(4-fluoro-3-methyl-phenyl)-1H-imidazol-2-yl]-3-fluoro-piperidin-1-yl}-pyrimidin-4-ylamine]	1 to 10	1 to 10
CCc1c(N)ncnc1N1CC[C@@H](c2nc(-c3ccc(F)c(C(F)(F)F)c3)cn2CCN2CCC2)[C@@H](F)C1 (racemic) [Compound 13, 6-{3,4-cis-4-[1-(2-Azetidin-1-yl-ethyl)-4-(4-fluoro-3-trifluoromethyl-phenyl)-1H-imidazol-2-yl]-3-fluoro-piperidin-1-yl}-5-ethyl-pyrimidin-4-ylamine]	1 to 10	1 to 10
CN(C)CCn1cc(-c2ccc(F)c(C(F)(F)F)c2)nc1[C@@H]1CCN(c2ncnc(N)c2C#N)C[C@@H]1F (racemic) [Compound 14, 4-Amino-6-{3,4-cis-4-[1-(2-dimethylamino-ethyl)-4-(4-fluoro-3-trifluoromethyl-phenyl)-1H-imidazol-2-yl]-3-fluoro-piperidin-1-yl}-pyrimidine-5-carbonitrile]	1 to 10	1 to 10
CN(C)CCn1cc(-c2ccc(F)c(C(F)(F)F)c2)nc1[C@@H]1CCN(c2ncnc(N)c2C(N)=O)C[C@@H]1F (racemic) [Compound 15]	1 to 10	> 10
CCOc1c(N)ncnc1N1CC[C@@H](c2nc(-c3ccc(F)c(C(F)(F)F)c3)cn2CCN2CCC2)[C@@H](F)C1 (racemic) [Compound 16, 6-{3,4-cis-4-[1-(2-Azetidin-1-yl-ethyl)-4-(4-fluoro-3-trifluoromethyl-phenyl)-1H-imidazol-2-yl]-3-fluoro-piperidin-1-yl}-5-ethoxy-pyrimidin-4-ylamine]	1 to 10	1 to 10
CC(C)c1c(N)ncnc1N1CC[C@@H](c2nc(-c3ccc(F)c(C(F)(F)F)c3)cn2CCN(C)C)[C@@H](F)C1 (racemic) [Compound 17, 6-{cis-4-[1-(2-Dimethylamino-ethyl)-4-(4-fluoro-3-trifluoromethyl-phenyl)-1H-imidazol-2-yl]-3-fluoro-piperidin-1-yl}-5-isopropyl-pyrimidin-4-ylamine]	1 to 10	> 10
Cc1cc(-c2cn(CCN3CCC3)c([C@@H]3CCN(c4ncnc(N)c4C#N)C[C@@H]3F)n2)ccc1F (racemic) [Compound 18, 4-Amino-6-{cis-4-[1-(2-azetidin-1-yl-ethyl)-4-(4-fluoro-3-methyl-phenyl)-1H-imidazol-2-yl]-3-fluoro-piperidin-1-yl}-pyrimidine-5-carbonitrile]	1 to 10	1 to 10
Cc1cc(-c2cn(CCN3CCC3)c([C@@H]3CCN(c4ncnc(N)c4C(C)C)C[C@@H]3F)n2)ccc1F (racemic) [Compound 24, 6-{cis-4-[1-(2-Azetidin-1-yl-ethyl)-4-(4-fluoro-3-methyl-phenyl)-1H-imidazol-2-yl]-3-fluoro-piperidin-1-yl}-5-isopropyl-pyrimidin-4-ylamine]	1 to 10	1 to 10
CN(C)CCn1cc(-c2ccc(F)c(C(F)(F)F)c2)nc1[C@@H]1CCN(c2ncnc(N)c2Cl)C[C@@H]1F (racemic) [Compound 25]	1 to 10	1 to 10
CC(C)c1c(N)ncnc1N1CC[C@@H](c2nc(-c3ccc(F)c(C(F)(F)F)c3)c[nH]2)[C@@H](F)C1 (racemic) [Compound 26, 6-{cis-3-Fluoro-4-[4-(4-fluoro-3-trifluoromethyl-phenyl)-1H-imidazol-2-yl]-piperidin-1-yl}-5-isopropyl-pyrimidin-4-ylamine]	1 to 10	> 10
CC(C)c1c(N)ncnc1N1CC[C@@H](c2nc(-c3ccc(F)c(C(F)(F)F)c3)cn2CCN)[C@@H](F)C1 (racemic) [Compound 33, 6-{cis-4-[1-(2-Amino-ethyl)-4-(4-fluoro-3-trifluoromethyl-phenyl)-1H-imidazol-2-yl]-3-fluoro-piperidin-1-yl}-5-isopropyl-pyrimidin-4-ylamine]	1 to 10	1 to 10
NCCn1cc(-c2ccc(F)c(C(F)(F)F)c2)nc1[C@@H]1CCN(c2ncnc(N)c2Cl)C[C@@H]1F (racemic) [Compound 36]	1 to 10	1 to 10
Cc1cc(-c2cn(CCNC(C)C)c([C@@H]3CCN(c4ncnc(N)c4C(C)C)C[C@@H]3F)n2)ccc1F (racemic) [Compound 37, 6-{cis-3-Fluoro-4-[4-(4-fluoro-3-methyl-phenyl)-1-(2-isopropylamino-ethyl)-1H-imidazol-2-yl]-piperidin-1-yl}-5-isopropyl-pyrimidin-4-ylamine]	1 to 10	1 to 10

Further lines, results first:

IC50 [1] [nM]	IC50 [2] [nM]	Structure (SMILES)
< 1	< 1	N#Cc1c(N)ncnc1N1CC[C@@H](c2nc(-c3ccc(F)c(C(F)(F)F)c3)cn2CCN2CCC2)[C@@H](F)C1 (racemic) [Compound 1, 4-Amino-6-{3,4-cis-4-[1-(2-azetidin-1-yl-ethyl)-4-(4-fluoro-3-trifluoromethyl-phenyl)-1H-imidazol-2-yl]-3-fluoro-piperidin-1-yl}-pyrimidine-5-carbonitrile]
< 1	< 1	NC(=O)c1c(N)ncnc1N1CC[C@@H](c2nc(-c3ccc(F)c(C(F)(F)F)c3)cn2CCN2CCC2)[C@@H](F)C1 (racemic) [Compound 2, 4-Amino-6-{3,4-cis-4-{1-(2-azetidin-1-yl-ethyl)-4-(4-fluoro-3-trifluoromethyl-phenyl)-1H-imidazol-2-yl}-3-fluoro-piperidin-1-yl}-pyrimidine-5-carboxamide]
1 to 10	> 10	C[C@H]1CN(c2ncnc(N)c2C#N)CC[C@H]1c1nc(-c2ccc(F)c(C(F)(F)F)c2)cn1CCN1CCC1 (racemic) [Compound 5, 4-Amino-6-{3,4-cis-4-[1-(2-azetidin-1-yl-ethyl)-4-(4-fluoro-3-trifluoromethyl-phenyl)-1H-imidazol-2-yl]-3-methyl-piperidin-1-yl}-pyrimidine-5-carbonitrile]
1 to 10	> 10	N#Cc1c(N)ncnc1N1CC[C@H](c2nc(-c3ccc(F)c(C(F)(F)F)c3)cn2CCN2CCC2)[C@@H](F)C1 (racemic) [Compound 7, 4-amino-6-{3,4-trans-4-[1-(2-azetidin-1-yl-ethyl)-4-(4-fluoro-3-trifluoromethyl-phenyl)-1H-imidazol-2-yl]-3-fluoro-piperidin-1-yl}-pyrimidine-5-carbonitrile]
1 to 10	> 10	NC(=O)c1c(N)ncnc1N1CC[C@@H](c2nc(-c3ccc(F)c(C(F)(F)F)c3)cn2CCN2CCC2)[C@H](F)C1 (racemic) [Compound 8, 4-Amino-6-{3,4-trans-4-[1-(2-azetidin-1-yl-ethyl)-4-(4-fluoro-3-trifluoromethyl-phenyl)-1H-imidazol-2-yl]-3-fluoro-piperidin-1-yl}-pyrimidine-5-carboxamide]
1 to 10	1 to 10	Cc1cc(-c2cn(CCN(C)C)c([C@@H]3CCN(c4ncnc(N)c4C#N)C[C@@H]3F)n2)ccc1F (racemic) [Compound 9]
< 1	< 1	Nc1ncnc(N2CC[C@@H](c3nc(-c4ccc(F)c(C(F)(F)F)c4)cn3CCN3CCC3)[C@@H](F)C2)c1Cl (racemic) [Compound 10, 6-{3,4-cis-4-[1-(2-Azetidin-1-yl-ethyl)-4-(4-fluoro-3-trifluoromethyl-phenyl)-1H-imidazol-2-yl]-3-fluoro-piperidin-1-yl}-5-chloro-pyrimidin-4-ylamine]
1 to 10	1 to 10	Nc1ncnc(N2CC[C@@H](c3nc(-c4ccc(F)c(C(F)(F)F)c4)cn3CCN3CCC3)[C@H](F)C2)c1Cl (racemic) [Compound 11, 6-{3,4-trans-4-[1-(2-Azetidin-1-yl-ethyl)-4-(4-fluoro-3-trifluoromethyl-phenyl)-1H-imidazol-2-yl]-3-fluoro-piperidin-1-yl}-5-chloro-pyrimidin-4-ylamine]
